Test results reported in US12612360B2 (Sanofi, priority 2020, dated 2026).
Where a name gives a salt, the structure may show the parent alone.

Target: T1, ERα (Homo sapiens, UniProt P03372)
T1 construct: host or cells: MCF7
T1 sequence (P03372 1-595): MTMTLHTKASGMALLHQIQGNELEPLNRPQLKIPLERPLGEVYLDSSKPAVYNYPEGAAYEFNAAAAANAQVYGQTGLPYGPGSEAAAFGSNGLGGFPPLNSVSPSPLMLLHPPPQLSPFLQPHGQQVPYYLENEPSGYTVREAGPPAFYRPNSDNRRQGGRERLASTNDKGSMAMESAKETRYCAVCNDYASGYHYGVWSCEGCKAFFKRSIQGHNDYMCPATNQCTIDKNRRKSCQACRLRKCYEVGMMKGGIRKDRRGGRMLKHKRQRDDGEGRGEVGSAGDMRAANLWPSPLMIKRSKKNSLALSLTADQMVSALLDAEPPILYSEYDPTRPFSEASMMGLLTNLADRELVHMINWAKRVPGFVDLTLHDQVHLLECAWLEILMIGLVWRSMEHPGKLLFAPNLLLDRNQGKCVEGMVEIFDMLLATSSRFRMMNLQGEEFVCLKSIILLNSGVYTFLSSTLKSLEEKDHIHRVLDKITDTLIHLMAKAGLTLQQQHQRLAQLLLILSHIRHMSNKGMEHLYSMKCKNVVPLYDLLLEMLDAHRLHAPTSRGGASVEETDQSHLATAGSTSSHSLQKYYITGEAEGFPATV
Experiment: Estrogen receptor degradation activity: breast cancer cell ERα in cell western assay (MCF7 cells)
Format: cell-based
Conditions: for % Degradation At 0.3 μM: 4 hours, relative to fulvestrant 0.1 μM positive control; for DC50: 4 hours post compound addition, concentration which degrades 50% of the estrogen receptor, read-out: Degradation IC50
Outline: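 In-cell western readout: ERα immunofluorescence (Alexa 488) normalised to DNA signal (Syto-64) after formalin fixation. Compounds dosed for 4 h on MCF7 cells in stripped-serum, phenol-red-free medium over nine 1:5 steps, 0.3 to […] final; fulvestrant 0.1 μM control. IC50 in nM for 50% ERα degradation.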

SMILES	% Degradation At 0.3 μM [%]	DC50 [nM]
O=C(O)c1ccc2c(c1)CCCC([C@@H]1C[C@H]1C1CCC(F)(F)CC1)=C2c1ccc(C=C2CN(CCCF)C2)cc1 (racemic) [Example 187, 8-(trans-2-(4,4-difluorocyclohexyl)cyclopropyl)-9-(4-((1-(3-fluoropropyl)azetidin-3-ylidene)methyl)phenyl)-6,7-dihydro-5H-benzo[7]annulene-3-carboxylic acid]	86	1.6
Cc1cc(F)ccc1C1=C(c2cc(F)c(C=C3CN(CCCF)C3)cc2F)c2ccc(C(=O)O)cc2CCC1.Cl [Example 65, 9-(2,5-difluoro-4-((1-(3-fluoropropyl)azetidin-3-ylidene)methyl)phenyl)-8-(4-fluoro-2-methylphenyl)-6,7-dihydro-5H-benzo[7]annulene-3-carboxylic acid hydrochloride]	95	0.3
CC1(C)CCCC(C2=C(c3ccc(C=C4CN(CCCF)C4)cc3)c3ccc(C(=O)O)cc3CCC2)C1 (single isomer, unassigned) [Example 171, 8-(3,3-dimethylcyclohexyl)-9-(4-((1-(3-fluoropropyl)azetidin-3-ylidene)methyl)phenyl)-6,7-dihydro-5H-benzo[7]annulene-3-carboxylic acid]	88	0.4
O=C(O)c1ccc2c(c1)CCCC(c1ccc(Cl)cc1Cl)=C2c1c(F)cc(C=C2CN(CCCF)C2)cc1F [Example 73, 8-(2,4-dichlorophenyl)-9-(2,6-difluoro-4-((1-(3-fluoropropyl)azetidin-3-ylidene)methyl)phenyl)-6,7-dihydro-5H-benzo[7]annulene-3-carboxylic acid]	98	0.3
Cc1c(C2=C(c3ccc(Cl)cc3Cl)CCCc3cc(C(=O)O)ccc32)ccc(C=C2CN(CCCF)C2)c1F [Example 63, 8-(2,4-dichlorophenyl)-9-(3-fluoro-4-((1-(3-fluoropropyl)azetidin-3-ylidene)methyl)-2-methylphenyl)-6,7-dihydro-5H-benzo[7]annulene-3-carboxylic acid]	90	0.7
Cc1cc(F)ccc1C1=C(c2ccc(C=C3CN(CCCF)C3)c(C(F)(F)F)c2)c2ccc(C(=O)O)cc2CCC1 [Example 157, 8-(4-fluoro-2-methylphenyl)-9-(4-((1-(3-fluoropropyl)azetidin-3-ylidene)methyl)-3-(trifluoromethyl)phenyl)-6,7-dihydro-5H-benzo[7]annulene-3-carboxylic acid]	88	3.1
Cl.O=C(O)c1ccc2c(c1)CCC(c1ccc(Cl)cc1Cl)=C2c1ccc(C=C2CN(CCCF)C2)cc1 [Example 106, 6-(2,4-dichlorophenyl)-5-(4-((1-(3-fluoropropyl)azetidin-3-ylidene)methyl)phenyl)-7,8-dihydronaphthalene-2-carboxylic acid hydrochloride]	93	1
Cl.O=C(O)c1ccc2c(c1)CCCC(c1ccc(Cl)cc1Cl)=C2c1ccc(C=C2CN(CCCF)C2)c(F)c1F [Example 80, 8-(2,4-dichlorophenyl)-9-(2,3-difluoro-4-((1-(3-fluoropropyl)azetidin-3-ylidene)methyl)phenyl)-6,7-dihydro-5H-benzo[7]annulene-3-carboxylic acid hydrochloride]	98	0.6
Cc1cc(F)ccc1C1=C(c2cc(F)c(C=C3CN(CCCF)C3)cc2C)c2ccc(C(=O)O)cc2CCC1.Cl [Example 61, 8-(4-fluoro-2-methylphenyl)-9-(5-fluoro-4-((1-(3-fluoropropyl)azetidin-3-ylidene)methyl)-2-methylphenyl)-6,7-dihydro-5H-benzo[7]annulene-3-carboxylic acid hydrochloride]	93	0.8
O=C(O)c1ccc2c(c1)OCCC(c1ccc(Cl)cc1Cl)=C2c1ccc(C=C2CN(CCCF)C2)cc1 [Example 114, 4-(2,4-Dichlorophenyl)-5-(4-((1-(3-fluoropropyl)azetidin-3-ylidene)methyl)phenyl)-2,3-dihydrobenzo[b]oxepine-8-carboxylic acid hydrochloride]	91	0.4
Cc1cc(F)ccc1C1=C(c2ccc(C=C3CN(CCCF)C3)c(F)c2F)c2ccc(C(=O)O)cc2CCC1 [Example 152, 9-(2,3-difluoro-4-((1-(3-fluoropropyl)azetidin-3-ylidene)methyl)phenyl)-8-(4-fluoro-2-methylphenyl)-6,7-dihydro-5H-benzo[7]annulene-3-carboxylic acid]	93	0.2

More lines, now with the values ahead:

% Degradation At 0.3 μM [%]	DC50 [nM]	SMILES
92	0.8	Cc1ccc(C(F)(F)F)cc1C1=C(c2ccc(C=C3CN(CCCF)C3)cc2)c2ccc(C(=O)O)cc2CCC1 [Example 136, 9-(4-((1-(3-fluoropropyl)azetidin-3-ylidene)methyl)phenyl)-8-(2-methyl-5-(trifluoromethyl)phenyl)-6,7-dihydro-5H-benzo[7]annulene-3-carboxylic acid]
90	0.2	O=C(O)c1ccc2c(c1)CCCC(c1cc(C(F)(F)F)ccc1C(F)(F)F)=C2c1ccc(C=C2CN(CCCF)C2)cc1 [Example 151, 8-(2,5-bis(trifluoromethyl)phenyl)-9-(4-((1-(3-fluoropropyl)azetidin-3-ylidene)methyl)phenyl)-6,7-dihydro-5H-benzo[7]annulene-3-carboxylic acid]
94	0.2	O=C(O)c1ccc2c(c1)CCCC(c1ccc(F)cc1C(F)(F)F)=C2c1ccc(C=C2CN(CCCF)C2)cc1 [Example 95, 8-(4-fluoro-2-(trifluoromethyl)phenyl)-9-(4-((1-(3-fluoropropyl)azetidin-3-ylidene)methyl)phenyl)-6,7-dihydro-5H-benzo[7]annulene-3-carboxylic acid]
95	0.8	Cc1cc(Cl)ccc1C1=C(c2ccc(C=C3CN(CCC(F)F)C3)cc2)c2ccc(C(=O)O)cc2CCC1 [Example 132, 8-(4-chloro-2-methylphenyl)-9-(4-((1-(3,3-difluoropropyl)azetidin-3-ylidene)methyl)phenyl)-6,7-dihydro-5H-benzo[7]annulene-3-carboxylic acid]
93	0.4	O=C(O)c1ccc2c(c1)CCCC(c1ccc(F)cc1F)=C2c1ccc(C=C2CN(CCCF)C2)cc1 [Example 54, 8-(2,4-difluorophenyl)-9-(4-((1-(3-fluoropropyl)azetidin-3-ylidene)methyl)phenyl)-6,7-dihydro-5H-benzo[7]annulene-3-carboxylic acid]
90	0.6	O=C(O)c1ccc2c(c1)CCCC(c1ccc3c(c1F)CCC3)=C2c1ccc(C=C2CN(CCCF)C2)cc1 [Example 7, 8-(4-fluoro-2,3-dihydro-1H-inden-5-yl)-9-(4-((1-(3-fluoropropyl)azetidin-3-ylidene)methyl)phenyl)-6,7-dihydro-5H-benzo[7]annulene-3-carboxylic acid]
89	0.6	Cl.O=C(O)c1ccc2c(c1)CCCC(c1cccc(C(F)(F)F)c1)=C2c1ccc(C=C2CN(CCCF)C2)cc1 [Example 182, 9-(4-((1-(3-fluoropropyl)azetidin-3-ylidene)methyl)phenyl)-8-(3-(trifluoromethyl)phenyl)-6,7-dihydro-5H-benzo[7]annulene-3-carboxylic acid hydrochloride]
96	0.4	O=C(O)c1ccc2c(c1)CCCC(c1ccc(Cl)cc1Cl)=C2c1ccc(C=C2CN(CCCF)C2)cc1 [Example 1, 8-(2,4-Dichlorophenyl)-9-(4-((1-(3-fluoropropyl)azetidin-3-ylidene)methyl)phenyl)-6,7-dihydro-5H-benzo[7]annulene-3-carboxylic acid]
94	1	O=C(O)c1ccc2c(c1)CCCC(c1cccc(C(F)(F)F)c1F)=C2c1ccc(C=C2CN(CCC(F)F)C2)cc1 [Example 129, 9-(4-((1-(3,3-difluoropropyl)azetidin-3-ylidene)methyl)phenyl)-8-(2-fluoro-3-(trifluoromethyl)phenyl)-6,7-dihydro-5H-benzo[7]annulene-3-carboxylic acid]
93	0.4	Cc1cccc(C2=C(c3ccc(C=C4CN(CCCF)C4)cc3)c3ccc(C(=O)O)cc3CCC2)c1C(F)(F)F [Example 118, 9-(4-((1-(3-fluoropropyl)azetidin-3-ylidene)methyl)phenyl)-8-(3-methyl-2-(trifluoromethyl)phenyl)-6,7-dihydro-5H-benzo[7]annulene-3-carboxylic acid]
93	0.6	O=C(O)c1ccc2c(c1)CCCC(c1c(F)ccc3c1CCC3)=C2c1ccc(C=C2CN(CCC(F)F)C2)cc1 [Example 160, 9-(4-((1-(3,3-difluoropropyl)azetidin-3-ylidene)methyl)phenyl)-8-(5-fluoro-2,3-dihydro-1H-inden-4-yl)-6,7-dihydro-5H-benzo[7]annulene-3-carboxylic acid]
